“Also recorded” adds a separate entry of the source. Like-named read-outs stand apart in the source and are kept apart here.
Assays:
[1] = assay type: in vivo, marmosets; conditions: for T1 (mean), Blood: 0.3 ml/kg, pre-contrast 507
[2] = Acute intravenous toxicity in mice (Example 4); conditions: for Cumulative Mortalities/Number Dosed, Female / Cumulative Mortalities/Number Dosed, Male: 7 days; for LD50: 7-day observation
Procedure: (§1) In addition, the cardiotoxic effects of single bolus intracoronary arterial injections of 4, 8, 16 or 32 mg MnCl2 were evaluated in the isolated perfused rabbit heart (IPRH).
(§2) The aqueous vehicle for the suspension of negatively charged liposomes consisted of 0.9% NaCl buffered with 0.003 M sodium phosphate, pH 7.4. The lipid concentration was 50 μmol/ml.
A total of 60 mice, 30 males (body weight range of 20-33.5 g) and 30 females (body weight range of 19.1-29.7 g) were used. Fifty of the mice were Swiss ICR, CD-1, obtained from Charles River and ten were Swiss CF-1 obtained from Sasco (Omaha, Neb.).
The four test substances were administered via the lateral tail vein of the mouse at a rate of 1 ml/min with the following doses given.

[3] = system: isolated perfused rabbit heart; assay: Intracoronary cardiotoxicity in the isolated perfused rabbit heart (IPRH)
Procedure: as §1, §2
A total of 8 female, New Zealand albino rabbits, with body weights ranging from 1.97-2.96 kg were used in the study.
Rabbits were sacrificed by cervical dislocation, the hearts excised and coronary perfusion was performed at constant pressure via the aortic root using an oxygenated physiological salt solution (Chenoweth's solution) heated to 37° C. A 0.8%, w/v, solution of MnCl2 was heated to 37° C. and intracoronary bolus injections of 0.5, 1.0, 2.0 and 4.0 ml were made in each of the six hearts via a sidearm of the perfusion apparatus. A period of time sufficient to allow the heart to stabilize was allowed between injections. The heart rate (HR), contractile force (CF) and electrocardiogram (ECG) were recorded on a Grass Model 7 polygraph. The maximal percentage changes from pre-injection control values for HR and CF were determined during intervals of […] and 15-30 seconds after injection. The percentage changes from control HR and CF were also recorded at 1, 2, 3 and 4 minutes after injection. The ECG was examined for arrhythmias. When ventricular fibrillation (VF) occurred, no calculations were performed with CF and HR data from that injection.

[4] = Biodistribution of 54MnNa2 EDTA and 54Mn-L in rats (Example 5); assay type: in vivo, Sprague-Dawley rats
Text: A total of forty Sprague-Dawley rats (20 male, 217-295 g; 20 female, 151-208 g; Charles River) were used. Drinking water was provided ad libitum. The animals, 2 males and 2 females per group, were selected randomly from their cages and were identified with indelible ink numbers at tail bases before test substance administration.
Rats were divided into 10 groups consisting of 2 male and 2 female rats per group. […] Immediately after dosing, rats were housed in individual metabolism cages. Ground Purina Laboratory Chow and water were supplied ad libitum to animals sacrificed at 24 and 48 hr after treatment. Rats from both ^54 NmNa2 EDTA and ^54 Mn-L treatment groups were sacrificed by cervical dislocation at 0.5, 2, 4, 24 and 48 hr after treatment, and the following samples were obtained: injection site, blood, liver, lung, spleen, heart, kidneys, salivary gland (submaxillary), brain, bone with marrow, muscle and fat. Urine samples were obtained from animals sacrificed at all intervals of 2 hr or more after injection and fecal samples were obtained from animals sacrificed at 24 and 48 hr after treatment. […] The entire organ weights were determined for the remaining tissues.
Levels of radioactivity in the biological specimens and aliquots of the injected test substances were determined using a gamma scintillation spectrometer (Model 1085, Nuclear Chicago Corp., Des Plaines, Ill.). Results were calculated on a percent dose/organ (or fluid) and a percent dose/g (or ml) basis using an HP-85 desk top computer (Hewlett Packard, Fort Collins, Colo.).
Kinetic data for the elimination of radioactivity from liver, spleen, kidneys, heart and bone with marrow were curve fitted by the peeling and least-square methods, to mono or bi-exponential equations: [formula]
The half-life (t 1/2) for each elimination phase was calculated as 0.693/Ki. The square of the correlation coefficient (r^2) for each elimination phase was calculated as an indication of variability.

[5] = 32 mg dose, 0-15 s, only 1 heart, all others had VF

What does the source list for O.O.O=C([O-])CN(CC(=O)[O-])[C@@H]1CCCC[C@H]1N(CC(=O)[O-])CC(=O)[O-].[Mn+2].[Na+].[Na+] (relative stereo) [EXAMPLE 1 (E), disodium (trans-1,2-diaminocyclohexane-N,N,N',N'-tetraacetate) manganese dihydrate]?
Blood (5 min) and liver T1 values (in words) ([1]; 0.3 ml/kg i.v.): substantially reduced; several other tissue T1's (in words) ([1]; 0.3 ml/kg i.v.): slightly reduced; T1 (mean), Blood ([1]; 5 minute): 375; T1 (mean), Blood ([1]; 10 minute): 454; Tissue T1 (mean), Bladder ([1]; 15 min after 0.3 ml/kg): 217; Tissue T1 (mean), Fat ([1]; 15 min after 0.3 ml/kg): 68; Tissue T1 (mean), Large Intestine ([1]; 15 min after 0.3 ml/kg): 185; Tissue T1 (mean), Liver ([1]; 15 min after 0.3 ml/kg): 32; Tissue T1 (mean), Lung ([1]; 15 min after 0.3 ml/kg): 280; Tissue T1 (mean), Pancreas ([1]; 15 min after 0.3 ml/kg): 103; Tissue T1 (mean), Renal Cortex ([1]; 15 min after 0.3 ml/kg): 152; Tissue T1 (mean), Renal Medulla ([1]; 15 min after 0.3 ml/kg): 209; Tissue T1 (mean), Skeletal Muscle ([1]; 15 min after 0.3 ml/kg): 206; Tissue T1 (mean), Small Intestine ([1]; 15 min after 0.3 ml/kg): 107; Tissue T1 (mean), Spleen ([1]; 15 min after 0.3 ml/kg): 221; Tissue T1 (mean), Stomach ([1]; 15 min after 0.3 ml/kg): 145; Tissue T1 (mean), Heart ([1]; 15 min after 0.3 ml/kg (0.118 mmol Mn(II)/kg)): 183; T1 (mean), Blood ([1]; 15 minute): 511; Cardiovascular effects ([1]; in vivo, iv): minimal

Which results are given for [Cl][Mn][Cl] [MnCl2, manganese (II) chloride]?
Cumulative Mortalities/Number Dosed, Female ([2]; 25 mg/kg i.v.): 1/5; Cumulative Mortalities/Number Dosed, Male ([2]; 25 mg/kg i.v.): 3/5; Cumulative Mortalities/Number Dosed, Female ([2]; 31.25 mg/kg i.v.): 4/5; Cumulative Mortalities/Number Dosed, Male ([2]; 31.25 mg/kg i.v.): 2/5; Cumulative Mortalities/Number Dosed, Female ([2]; 37.5 mg/kg i.v.): 4/5; Cumulative Mortalities/Number Dosed, Male ([2]; 37.5 mg/kg i.v.): 4/5; time of death after dosing was completed ([2]; all deaths with the exception of one (4 days)): one; acute intravenous toxicity (in words) ([2]; intravenous, mice): high degree of acute toxicity; LD50 ([2]; intravenous, mice, 10080 min): 28 mg/kg; LD50 ([2]; intravenous, mice, listed as 1, 10080 min): 28.0 mg/kg; LD50 as Mn(II) ([2]; intravenous, mice, 10080 min): 0.22 mmol/kg of Mn(II); cause of death ([2]; intravenous, mice, thoracotomy of one mouse): cardiac arrest; Incidence of Ventricular Fibrillation (VF) ([3]; 4 mg dose): 0/6; Mean % Change in Contractile Force (CF) ([3]; 4 mg dose, 0-15 s): -5%; Mean % Change in Heart Rate (HR) ([3]; 4 mg dose, 0-15 s): -2%; Mean % Change in Contractile Force (CF) ([3]; 4 mg dose, 15-30 s): -28%; Mean % Change in Heart Rate (HR) ([3]; 4 mg dose, 15-30 s): -2%; Mean % Change in Contractile Force (CF) ([3]; 4 mg dose, 1 min): -12%; Mean % Change in Contractile Force (CF) ([3]; 4 mg dose, 2 min): +5%; Mean % Change in Heart Rate (HR) ([3]; 4 mg dose, 2 min): -2%; Incidence of Ventricular Fibrillation (VF) ([3]; 8 mg dose): 0/6; Mean % Change in Contractile Force (CF) ([3]; 8 mg dose, 0-15 s): -74%; Mean % Change in Heart Rate (HR) ([3]; 8 mg dose, 0-15 s): -8%; Mean % Change in Contractile Force (CF) ([3]; 8 mg dose, 15-30 s): -38%; Mean % Change in Heart Rate (HR) ([3]; 8 mg dose, 15-30 s): -7%; Mean % Change in Contractile Force (CF) ([3]; 8 mg dose, 1 min): -17%; Mean % Change in Heart Rate (HR) ([3]; 8 mg dose, 1 min): -7%; Mean % Change in Contractile Force (CF) ([3]; 8 mg dose, 2 min): +2%; Mean % Change in Heart Rate (HR) ([3]; 8 mg dose, 2 min): -6%; Incidence of Ventricular Fibrillation (VF) ([3]; 16 mg dose): 2/6; Mean % Change in Contractile Force (CF) ([3]; 16 mg dose, 0-15 s): -92%; Mean % Change in Heart Rate (HR) ([3]; 16 mg dose, 0-15 s): -31%; Mean % Change in Contractile Force (CF) ([3]; 16 mg dose, 15-30 s): -61%; Mean % Change in Heart Rate (HR) ([3]; 16 mg dose, 15-30 s): -14%; Mean % Change in Contractile Force (CF) ([3]; 16 mg dose, 1 min): -37%; Mean % Change in Heart Rate (HR) ([3]; 16 mg dose, 1 min): -14%; Mean % Change in Contractile Force (CF) ([3]; 16 mg dose, 2 min): -1%; Mean % Change in Heart Rate (HR) ([3]; 16 mg dose, 2 min): -11%; premature ventricular contractions in hearts which did not fibrillate ([3]; 16 mg dose, during or immediately after injection): two of the four hearts; Incidence of Ventricular Fibrillation (VF) ([3]; 32 mg dose): 5/6; conduction block in the single heart which failed to fibrillate ([3]; 32 mg dose): complete A-V conduction block with ventricular standstill; Mean % Change in Contractile Force (CF) [3, 5]: -100%; Mean % Change in Heart Rate (HR) [3, 5]: -100%; Mean % Change in Contractile Force (CF) ([3]; 32 mg dose, 15-30 s): -64%; Mean % Change in Heart Rate (HR) ([3]; 32 mg dose, 15-30 s): -17%; Mean % Change in Contractile Force (CF) ([3]; 32 mg dose, 1 min): -33%; Mean % Change in Heart Rate (HR) ([3]; 32 mg dose, 1 min): -17%; Mean % Change in Contractile Force (CF) ([3]; 32 mg dose, 2 min): +2%; Mean % Change in Heart Rate (HR) ([3]; 32 mg dose, 2 min): -14%; arrhythmias (in words) ([3]; 4-32 mg): dose-related incidence of arrhythmias; also recorded: conduction delays and ventricular arrhythmias; effect on CF and HR (in words) ([3]; 4-32 mg, maximal within 0-15 seconds): Dose-related decreases in CF and HR; also recorded: dose-related depression of contractility and heart rate; PR and QRS intervals ([3]; ECG, 4-32 mg): dose-related increases in PR and QRS intervals

Which “distribution, percent dose/organ (in words)” value ([4]; 0.5-48 hr) does the source give for O=C([O-])CN(CCN(CC(=O)[O-])CC(=O)[O-])CC(=O)[O-].[54Mn+2].[Na+].[Na+] [^54 MnNa2 EDTA, disodium (ethylenediaminetetraacetato) manganese (II)] here?
The value was “distributed primarily to the liver, bone with marrow, muscle and kidneys”.

And the “bone and marrow half-life” value ([4]; bone and marrow)?
Its value is greater than 100 h.

What about the “heart half-life, monophasic elimination” value ([4]; heart) of the same molecule?
Its value is “approximately 8 hr”.

What about the “blood disappearance/clearance (in words)” value ([4]; intravenous) of the same molecule?
The value was “rapidly cleared from the blood”.

What about the “share associated with rapid first phase renal elimination” value ([4]; kidney) of the same molecule?
The value was “Approximately 81%”.

And the “renal clearance t 1/2, initial rapid phase” value ([4]; kidney, biphasic)?
The value was less than 1 h.

And the “renal clearance t 1/2, secondary slow phase” value ([4]; kidney, biphasic)?
The value was greater than 17 h.

And the “share associated with rapid first phase hepatic elimination” value ([4]; liver)?
Its value is “Approximately 92%”.

And the “hepatic clearance t 1/2, initial rapid phase” value ([4]; liver, biphasic)?
Its value is less than 1 h.

What about the “hepatic clearance t 1/2, secondary slow phase” value ([4]; liver, biphasic) of the same molecule?
Its value is greater than 17 h.

What about the “spleen half-life, monophasic elimination” value ([4]; spleen) of the same molecule?
The value was ~ 2 hr.

What about the “dose eliminated in the urine” value ([4]; within 2 hr after treatment) of the same molecule?
Its value is greater than 50%.

Reference: US5407660A, “Diagnostic liposomal compositions for enhancing NMR imaging” (Mallinckrodt Medical, Inc., priority 1993, dated 1995)
